Laboratory results taken from patent US9289365B2, “Compositions and methods for stimulating collagen synthesis in the skin” (Avon Products, Inc., priority 2011, dated 2016).

System: Human dermal fibroblasts
Assay: Stimulation of collagen synthesis in human dermal fibroblasts, procollagen type I C-peptide (PIP) EIA
Type: cell-based
Settings: compound at 0.0005% in DMSO, triplicate, 48-hour incubation; procollagen type I C-peptide in conditioned medium; increase in collagen over DMSO control
Procedure: The compounds 1-5, and 8-9 were assayed for stimulation of collagen synthesis as follows. Human dermal fibroblasts (Cascade Biologics, Portland, Oreg.) were plated at 10,000 cells/well in 96-well culture plates in supplemented medium (DMEM, 10% Fetal Bovine Serum, 1% Penicillin/Streptomycin and 1% L-Glutamine) overnight in humidified atmosphere of 10% CO2 at 37° C. The next day, the medium was replaced with fresh medium (DMEM, 1% Penicillin/Streptomycin and 1% L-Glutamine) and the compounds dissolved DMSO were added to the wells in triplicate at a concentration of 0.0005%, DMSO solution was used a control. Following 48-hour incubation, the plates were removed from the incubator and the medium from each well was collected for the procollagen assay.
Collagen production was measured using procollagen type I C-peptide (PIP) EIA kit (Takara Bio, Inc., Japan). Briefly, the conditioned medium was diluted 1:10 in Sample Diluent, 20 μl of diluted conditioned medium and 100 μl of antibody-POD conjugate solution were added to the wells of the Takara HASA plate. The ELISA plate was incubated at 37° C. for 3 hours before the wells were washed four times with 400 μl of 1×PBS. At the end of wash, 100 μl of substrate solution (supplied with kit) was added to the wells and incubated at room temperature for 15 minutes. The reaction was stopped by adding 100 μl of 1N sulfuric acid to the wells. The absorbance was measured on a spectrophotometer at 450 nm wavelength. The amount of procollagen peptide in the conditioned medium was calculated from the standard curve. The stimulation of collagen production was shown as an increase in collagen over the control.

SMILES | % Collagen Stimulation [%]
CCc1c(C(=O)N2CCCC2)cnn1-c1ccccc1Cl [Compound 1] | 73.2
Cc1c(C(=O)N2CCCC2)c(CC(C)C)nn1-c1ccccc1 [Compound 2] | 23.1
CCCc1c(C(=O)N2CCOCC2)cnn1-c1ccccc1Cl [Compound 3] | 13.5
Cc1c(C(=O)N2CCCC2)cnn1-c1ccccc1 [Compound 4] | 12.5
CCCc1c(C(=O)N2CCCC2)cnn1-c1ccccc1C [Compound 5] | 45.23
Cc1ccccc1N1CCN(C(=O)c2cc(-c3ccccc3)nn2-c2ccc(Cl)c(Cl)c2)CC1 [Compound 8] | 83.7
Cc1ccccc1N1CCN(C(=O)c2cc(-c3cccn3C)nn2-c2ccccc2Cl)CC1 [Compound 9] | 62.2
